Several values for one entry are separate records, joined by “and”; a condition that tells them apart may be missing. Equal entries are not always repeated.
Tested on: 485368-065-R4-J2-PDC spheroids with HUVEC/MSC, viability
Test: Anticancer human tumor 485368-065-R4-J2-PDC patient-derived pancreatic carcinoma cell line growth inhibition [CLK]
Conditions: for viability, T/C: stronger effect = lower value
Outline: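 Patient-derived tumor cells grown as complex spheroids with HUVEC endothelial cells and mesenchymal stem cells, treated with drug combinations. Concentrations descend in half-log steps from near clinical Cmax, or from 10 microM if Cmax unknown.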

[1] = curve of first compound, second compound 0.0316 µM
[2] = curve of first compound, second compound 0.1 µM
[3] = curve of first compound, second compound 0.316 µM
[4] = curve of first compound, second compound 1 µM
[5] = curve of first compound, second compound 3.16 µM
[6] = curve of first compound, second compound 10 µM
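Also: spheroids exposed to compounds for seven days.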
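For viability, T/C in this document: 100% = DMSO vehicle control wells.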

NC(=O)C(=Cn1cnc(-c2cc(C(F)(F)F)cc(C(F)(F)F)c2)n1)c1cncnc1 + CNC(=O)c1ccc(Nc2nc(OC3CCCC3)c3c(-c4ccc5nc(C)oc5c4)c[nH]c3n2)c(OC)c1 was tested, and the IC50 [1] was greater than 3 µM, the IC50 [2] was greater than 3 µM and the IC50 [3] was greater than 3 µM. For the same compound, the IC50 [4] was greater than 3 µM, the IC50 [5] was greater than 3 µM and the IC50 [6] was 2.59 µM. For the same compound, the viability, T/C (second compound 0.0316 µM, first compound 0.00949 µM) was 95%, the viability, T/C (second compound 0.0316 µM, first compound 0.03 µM) was 130% and the viability, T/C (second compound 0.0316 µM, first compound 0.0949 µM) was 179%. For the same compound, the viability, T/C (second compound 0.0316 µM, first compound 0.3 µM) was 195%, the viability, T/C (second compound 0.0316 µM, first compound 0.949 µM) was 176% and the viability, T/C (second compound 0.0316 µM, first compound 3 µM) was 128%. For the same compound, the viability, T/C (second compound 0.1 µM, first compound 0.00949 µM) was 96.4%, the viability, T/C (second compound 0.1 µM, first compound 0.03 µM) was 108% and the viability, T/C (second compound 0.1 µM, first compound 0.0949 µM) was 173%. The viability, T/C (second compound 0.1 µM, first compound 0.3 µM) was 177%, the viability, T/C (second compound 0.1 µM, first compound 0.949 µM) was 171% and the viability, T/C (second compound 0.1 µM, first compound 3 µM) was 97.5%. The viability, T/C (second compound 0.316 µM, first compound 0.00949 µM) was 98.1%, the viability, T/C (second compound 0.316 µM, first compound 0.03 µM) was 116% and the viability, T/C (second compound 0.316 µM, first compound 0.0949 µM) was 160%. The viability, T/C (second compound 0.316 µM, first compound 0.3 µM) was 154%, the viability, T/C (second compound 0.316 µM, first compound 0.949 µM) was 139% and the viability, T/C (second compound 0.316 µM, first compound 3 µM) was 74.3%. For the same compound, the viability, T/C (second compound 1 µM, first compound 0.00949 µM) was 82.2%, the viability, T/C (second compound 1 µM, first compound 0.03 µM) was 114% and the viability, T/C (second compound 1 µM, first compound 0.0949 µM) was 141%. The viability, T/C (second compound 1 µM, first compound 0.3 µM) was 132%, the viability, T/C (second compound 1 µM, first compound 0.949 µM) was 99.4% and the viability, T/C (second compound 1 µM, first compound 3 µM) was 62.5%. It also gave a viability, T/C (second compound 3.16 µM, first compound 0.00949 µM) of 80.3%, a viability, T/C (second compound 3.16 µM, first compound 0.03 µM) of 114% and a viability, T/C (second compound 3.16 µM, first compound 0.0949 µM) of 123%. It also gave a viability, T/C (second compound 3.16 µM, first compound 0.3 µM) of 113%, a viability, T/C (second compound 3.16 µM, first compound 0.949 µM) of 87.6% and a viability, T/C (second compound 3.16 µM, first compound 3 µM) of 59.3%. The viability, T/C (second compound 10 µM, first compound 0.00949 µM) was 69.4%, the viability, T/C (second compound 10 µM, first compound 0.03 µM) was 98.3% and the viability, T/C (second compound 10 µM, first compound 0.0949 µM) was 124%. It also gave a viability, T/C (second compound 10 µM, first compound 0.3 µM) of 98.5%, a viability, T/C (second compound 10 µM, first compound 0.949 µM) of 80.8% and a viability, T/C (second compound 10 µM, first compound 3 µM) of 45.4%.

For CC(Nc1ccc2c(c1)OCCn1cc(N3C(=O)OCC3C(F)F)nc1-2)C(N)=O (stereo unspecified), the viability, T/C (compound 0.0316 µM) was 95.1% and 99.5%, the viability, T/C (compound 0.1 µM) was 102% and 117% and the viability, T/C (compound 0.316 µM) was 116% and 105%. For the same compound, the viability, T/C (compound 1 µM) was 100% and 102%, the viability, T/C (compound 3.16 µM) was 91.4% and 89.5% and the viability, T/C (compound 10 µM) was 86.5% and 79.1%. It also gave an IC50 (curve of compound) greater than 10 µM.

CC(CO)NC(=O)c1cc(-c2ccc(Cl)cc2)nn(-c2cnn(C)c2)c1=O (stereo unspecified) + CNC(=O)c1ccc(Nc2nc(OC3CCCC3)c3c(-c4ccc5nc(C)oc5c4)c[nH]c3n2)c(OC)c1 showed an IC50 [1] greater than 10 µM, an IC50 [2] greater than 10 µM and an IC50 [3] greater than 10 µM. The IC50 [4] was greater than 10 µM, the IC50 [5] was greater than 10 µM and the IC50 [6] was greater than 10 µM. The viability, T/C (second compound 0.0316 µM, first compound 0.0316 µM) was 87.9%, the viability, T/C (second compound 0.0316 µM, first compound 0.1 µM) was 94.3% and the viability, T/C (second compound 0.0316 µM, first compound 0.316 µM) was 87.9%. It also gave a viability, T/C (second compound 0.0316 µM, first compound 1 µM) of 101%, a viability, T/C (second compound 0.0316 µM, first compound 3.16 µM) of 89.8% and a viability, T/C (second compound 0.0316 µM, first compound 10 µM) of 103%. For the same compound, the viability, T/C (second compound 0.1 µM, first compound 0.0316 µM) was 90.5%, the viability, T/C (second compound 0.1 µM, first compound 0.1 µM) was 97% and the viability, T/C (second compound 0.1 µM, first compound 0.316 µM) was 93.6%. It also gave a viability, T/C (second compound 0.1 µM, first compound 1 µM) of 103%, a viability, T/C (second compound 0.1 µM, first compound 3.16 µM) of 92.8% and a viability, T/C (second compound 0.1 µM, first compound 10 µM) of 97.8%. It also gave a viability, T/C (second compound 0.316 µM, first compound 0.0316 µM) of 82.8%, a viability, T/C (second compound 0.316 µM, first compound 0.1 µM) of 84.2% and a viability, T/C (second compound 0.316 µM, first compound 0.316 µM) of 82.5%. It also gave a viability, T/C (second compound 0.316 µM, first compound 1 µM) of 75.4%, a viability, T/C (second compound 0.316 µM, first compound 3.16 µM) of 86.4% and a viability, T/C (second compound 0.316 µM, first compound 10 µM) of 85.9%. It also gave a viability, T/C (second compound 1 µM, first compound 0.0316 µM) of 83.7%, a viability, T/C (second compound 1 µM, first compound 0.1 µM) of 69.9% and a viability, T/C (second compound 1 µM, first compound 0.316 µM) of 73.3%. The viability, T/C (second compound 1 µM, first compound 1 µM) was 73.9%, the viability, T/C (second compound 1 µM, first compound 3.16 µM) was 70.2% and the viability, T/C (second compound 1 µM, first compound 10 µM) was 77.1%. For the same compound, the viability, T/C (second compound 3.16 µM, first compound 0.0316 µM) was 72.3%, the viability, T/C (second compound 3.16 µM, first compound 0.1 µM) was 67.2% and the viability, T/C (second compound 3.16 µM, first compound 0.316 µM) was 71%. The viability, T/C (second compound 3.16 µM, first compound 1 µM) was 70.6%, the viability, T/C (second compound 3.16 µM, first compound 3.16 µM) was 69.3% and the viability, T/C (second compound 3.16 µM, first compound 10 µM) was 76%. It also gave a viability, T/C (second compound 10 µM, first compound 0.0316 µM) of 64.9%, a viability, T/C (second compound 10 µM, first compound 0.1 µM) of 71.2% and a viability, T/C (second compound 10 µM, first compound 0.316 µM) of 69.6%. For the same compound, the viability, T/C (second compound 10 µM, first compound 1 µM) was 66.6%, the viability, T/C (second compound 10 µM, first compound 3.16 µM) was 72.8% and the viability, T/C (second compound 10 µM, first compound 10 µM) was 70.7%.

Source: PubChem BioAssay AID2060617 (Molecular Pharmacology Branch, DTP, NCI, 2025)
